Entries after “also recorded” stand apart in the source; their conditions may differ. No end group written: not given here.
Experiments:
Type in all cases: cell-based
human IL-2 = experiment: CTLL-2 proliferation assay (WST-1), IL-2; settings: murine CTLL-2 cells, 1 nM human IL-2, BNZ132-1 50 and 500 nM, WST-1 OD450
Procedure: FIG. 6A-FIG. 6E presents inhibitory spectrum of BNZ132-1 over γc- and non-γc-cytokines. […] Neutralizing antibodies against each cytokine (R & D systems, 5 μg ml^−1) were included as controls. After 20 h, the cells were pulsed with WST-1 (Clontech) and OD450 of each well was measured after 6 h. A 19-mer scrambled peptide was used as a negative control at 5 μM. The experiments were conducted in triplicate (applies to all experiments in FIG. 6A-FIG. 6E). The result represents one of at least three independent experiments (applies to all experiments in FIG. 6A-FIG. 6E). […] In PT-18 proliferation assay, PT-18β or PT-18h21Rα cells were withdrawn of mouse IL-3 for 12 h before the experiment. Cells were then incubated with 1 nM of mouse IL-4, mouse IL-9, or mouse IL-21 in the presence or absence of the indicated doses (μM) of BNZ132-1. Neutralizing antibodies to each cytokine (5 μg ml^−1, except for anti-mouse IL-21 polyclonal antibody which was used at 15 μg ml−1) and a scrambled control peptide (5 μM) were included as negative controls. WST-1 assay was conducted as described above. […] In PT-18 h21Rα survival assay, PT-18h21Rα cells are described in the text. […] Both parental and hIL-21Rα positive PT-18 cells were washed and incubated without IL-3 for 12 h before the assay. […] The Y-axis represents the cpm (count per minute) values measured by a β-counter. […]

γc-cytokines = experiment: Target cytokine spectrum within the γc-family
human IL-15 = experiment: NK92 cell proliferation assay (WST-1), IL-15; settings: 24 h
Procedure: Human peripheral blood mononuclear cells were purified by the Ficoll-paque gradient centrifugation (GE-Healthcare) and stimulated by PHA (5 μg ml^−1, Sigma) for 48 h, then expanded with IL-2 (0.5 nM, Peprotech) for 48h, and then depleted of non-T cells by the Pan-T cell negative enrichment Ab cocktails (Miltenyi). The purified T cells were then fasted of IL-2 overnight prior to the proliferation assay by the tetrazolium dye method. Four hundred thousand cells (in 200 μl culture) were incubated with the cytokines and BNZ132-1 at the indicated concentrations for 24 h, and 20 μl WST1 reagent (Clontech) was added to each well. After 12 h incubation, OD450 was measured. The assay was performed in triplicate. […] NK 92 cells were cultured in human IL-2. Cells were washed to withdraw IL-2 for overnight and two hundred thousand cells (in 200 μl volume) were incubated with the indicated concentrations of the cytokine and BNZ132-1 for 24 h before 20 μl WST-1 reagent (Clontech) was added to each well to measure proliferative response. Absorbance at 450 nm was read at 6 h after the addition of the WST-1 dye. The assay was performed in triplicate. The assay was performed in triplicate and the figure represents a typical result out of 5 different HAM-TSP patients.
FIG. 8B, and FIG. 8C show the results of NK92 cell proliferation assay. NK92 cells responded to IL-2 and IL-15. […]

For IKEFLQRFIHIVQSIINTS [BNZ132-1], the “inhibition of IL-2-induced proliferation of CTLL-2 cells” value (human IL-2) was “inhibited IL-2 and IL-15 with an equal efficacy; also recorded: efficiently inhibits; also recorded: inhibition of IL-2 and IL-15”, the γc-cytokines not inhibited (γc-cytokines; IL-4, IL-7 and IL-21) was “excludes IL-4,-7 or -21” and the γc-cytokines inhibited (γc-cytokines; summary statements, BNZ132-2 and -3 data not shown) was “specifically inhibits IL-2, IL-15 and IL-9; also recorded: restricted to IL-2, -15, and -9”. The “inhibition of IL-15-induced proliferation of NK92 cells” value (human IL-15) was “dose-dependent manner; also recorded: dose-dependent inhibition”.

Source: patent US10854312B2, “Selective peptide antagonists” (BIONIZ, LLC, priority 2013, dated 2020)
